Reference: ChEMBL document CHEMBL2073816 (J Biol Chem, 2001)

Tests used:
[1] = target: T1, Solute carrier family 22 member 2 (Homo sapiens, UniProt O15244); assay: TP_TRANSPORTER: inhibition of Choline uptake (Choline: 10 uM, TPeA: 200 uM) in Xenopus laevis oocytes; format: functional, cell-based; details: oocyte
T1 sequence (O15244 whole entry): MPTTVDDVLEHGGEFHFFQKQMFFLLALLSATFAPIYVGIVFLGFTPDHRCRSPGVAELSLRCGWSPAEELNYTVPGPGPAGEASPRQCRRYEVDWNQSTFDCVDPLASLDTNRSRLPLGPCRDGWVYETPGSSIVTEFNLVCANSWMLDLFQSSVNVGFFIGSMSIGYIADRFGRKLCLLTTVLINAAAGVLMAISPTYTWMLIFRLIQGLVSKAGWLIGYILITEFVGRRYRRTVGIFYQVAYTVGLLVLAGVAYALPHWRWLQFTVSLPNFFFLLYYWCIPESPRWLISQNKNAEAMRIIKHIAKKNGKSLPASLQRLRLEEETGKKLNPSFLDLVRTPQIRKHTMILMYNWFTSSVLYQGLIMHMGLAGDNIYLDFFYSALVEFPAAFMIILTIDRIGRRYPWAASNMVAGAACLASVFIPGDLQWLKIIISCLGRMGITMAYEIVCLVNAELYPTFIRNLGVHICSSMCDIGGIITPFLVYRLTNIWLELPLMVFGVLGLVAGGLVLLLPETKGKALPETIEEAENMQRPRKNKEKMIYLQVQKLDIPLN

[2] = target: T1, Solute carrier family 22 member 2; assay: TP_TRANSPORTER: inhibition of Choline uptake (Choline: 10 uM, NMN: 5000 uM) in Xenopus laevis oocytes; format: functional, cell-based; details: oocyte
[3] = target: T2, Solute carrier family 22 member 1 (Rattus norvegicus, UniProt Q63089); assay: (§1) TP_TRANSPORTER: inhibition of Choline uptake (Choline: 10 uM, Quinine: 200 uM) in Xenopus laevis oocytes; format: functional, cell-based; details: oocyte
T2 sequence (Q63089 whole entry): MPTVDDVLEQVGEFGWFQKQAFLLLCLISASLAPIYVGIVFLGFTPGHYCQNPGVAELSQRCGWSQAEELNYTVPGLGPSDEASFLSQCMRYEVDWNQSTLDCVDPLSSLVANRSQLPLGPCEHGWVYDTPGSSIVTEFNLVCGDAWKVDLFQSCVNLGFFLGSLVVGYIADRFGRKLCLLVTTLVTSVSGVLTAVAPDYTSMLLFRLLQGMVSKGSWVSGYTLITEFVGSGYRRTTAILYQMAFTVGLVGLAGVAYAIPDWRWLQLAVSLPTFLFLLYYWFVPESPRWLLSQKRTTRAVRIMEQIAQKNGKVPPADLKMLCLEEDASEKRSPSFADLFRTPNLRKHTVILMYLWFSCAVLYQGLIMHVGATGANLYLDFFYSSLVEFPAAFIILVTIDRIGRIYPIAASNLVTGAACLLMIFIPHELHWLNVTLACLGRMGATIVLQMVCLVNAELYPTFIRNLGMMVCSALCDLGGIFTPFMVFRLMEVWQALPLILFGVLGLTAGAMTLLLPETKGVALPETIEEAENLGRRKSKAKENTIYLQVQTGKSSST

[4] = target: T3, Solute carrier family 22 member 2 (Rattus norvegicus, UniProt Q9R0W2); assay: as §1; format: functional, cell-based; details: oocyte
T3 sequence (Q9R0W2 whole entry): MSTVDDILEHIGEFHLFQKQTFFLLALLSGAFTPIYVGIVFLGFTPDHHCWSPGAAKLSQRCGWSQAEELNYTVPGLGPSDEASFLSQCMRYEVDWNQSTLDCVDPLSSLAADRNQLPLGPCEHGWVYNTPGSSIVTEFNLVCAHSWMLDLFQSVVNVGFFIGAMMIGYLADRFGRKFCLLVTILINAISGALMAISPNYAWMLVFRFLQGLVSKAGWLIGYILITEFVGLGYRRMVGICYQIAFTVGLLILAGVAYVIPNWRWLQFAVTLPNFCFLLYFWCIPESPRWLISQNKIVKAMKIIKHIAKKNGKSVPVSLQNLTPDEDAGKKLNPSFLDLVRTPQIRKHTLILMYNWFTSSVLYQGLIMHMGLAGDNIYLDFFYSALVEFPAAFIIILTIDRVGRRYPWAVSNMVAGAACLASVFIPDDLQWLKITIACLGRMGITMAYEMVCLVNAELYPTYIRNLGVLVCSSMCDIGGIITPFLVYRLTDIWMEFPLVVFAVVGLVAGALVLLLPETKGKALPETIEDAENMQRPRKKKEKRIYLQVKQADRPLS

[5] = substrate: C[N+](C)(C)CCO; assay: cells, lysate or membranes named

CCCCC[N+](CCCCC)(CCCCC)CCCCC [TETRAPENTYLAMMONIUM]
Activity [1]: inhibitor [+]

CNC(=O)c1cccnc1 [NICOTINYL METHYLAMIDE]
Activity [2]: inhibitor [+]

C=C[C@H]1C[N@@]2CC[C@H]1C[C@H]2[C@H](O)c1ccnc2ccc(OC)cc12 [QUININE]
Activity [3]: inhibitor [+] | Activity [4]: inhibitor [+]

B1: Solute carrier family 22 member 1 (Rattus norvegicus) (protein)
chain: MPTVDDVLEQVGEFGWFQKQAFLLLCLISASLAPIYVGIVFLGFTPGHYCQNPGVAELSQRCGWSQAEELNYTVPGLGPSDEASFLSQCMRYEVDWNQSTLDCVDPLSSLVANRSQLPLGPCEHGWVYDTPGSSIVTEFNLVCGDAWKVDLFQSCVNLGFFLGSLVVGYIADRFGRKLCLLVTTLVTSVSGVLTAVAPDYTSMLLFRLLQGMVSKGSWVSGYTLITEFVGSGYRRTTAILYQMAFTVGLVGLAGVAYAIPDWRWLQLAVSLPTFLFLLYYWFVPESPRWLLSQKRTTRAVRIMEQIAQKNGKVPPADLKMLCLEEDASEKRSPSFADLFRTPNLRKHTVILMYLWFSCAVLYQGLIMHVGATGANLYLDFFYSSLVEFPAAFIILVTIDRIGRIYPIAASNLVTGAACLLMIFIPHELHWLNVTLACLGRMGATIVLQMVCLVNAELYPTFIRNLGMMVCSALCDLGGIFTPFMVFRLMEVWQALPLILFGVLGLTAGAMTLLLPETKGVALPETIEEAENLGRRKSKAKENTIYLQVQTGKSSST
Km [5]: 346 µM

B2: Solute carrier family 22 member 2 (Rattus norvegicus) (protein)
chain: MSTVDDILEHIGEFHLFQKQTFFLLALLSGAFTPIYVGIVFLGFTPDHHCWSPGAAKLSQRCGWSQAEELNYTVPGLGPSDEASFLSQCMRYEVDWNQSTLDCVDPLSSLAADRNQLPLGPCEHGWVYNTPGSSIVTEFNLVCAHSWMLDLFQSVVNVGFFIGAMMIGYLADRFGRKFCLLVTILINAISGALMAISPNYAWMLVFRFLQGLVSKAGWLIGYILITEFVGLGYRRMVGICYQIAFTVGLLILAGVAYVIPNWRWLQFAVTLPNFCFLLYFWCIPESPRWLISQNKIVKAMKIIKHIAKKNGKSVPVSLQNLTPDEDAGKKLNPSFLDLVRTPQIRKHTLILMYNWFTSSVLYQGLIMHMGLAGDNIYLDFFYSALVEFPAAFIIILTIDRVGRRYPWAVSNMVAGAACLASVFIPDDLQWLKITIACLGRMGITMAYEMVCLVNAELYPTYIRNLGVLVCSSMCDIGGIITPFLVYRLTDIWMEFPLVVFAVVGLVAGALVLLLPETKGKALPETIEDAENMQRPRKKKEKRIYLQVKQADRPLS
Km [5]: 441 µM

B3: Solute carrier family 22 member 2 (Homo sapiens) (protein)
chain: MPTTVDDVLEHGGEFHFFQKQMFFLLALLSATFAPIYVGIVFLGFTPDHRCRSPGVAELSLRCGWSPAEELNYTVPGPGPAGEASPRQCRRYEVDWNQSTFDCVDPLASLDTNRSRLPLGPCRDGWVYETPGSSIVTEFNLVCANSWMLDLFQSSVNVGFFIGSMSIGYIADRFGRKLCLLTTVLINAAAGVLMAISPTYTWMLIFRLIQGLVSKAGWLIGYILITEFVGRRYRRTVGIFYQVAYTVGLLVLAGVAYALPHWRWLQFTVSLPNFFFLLYYWCIPESPRWLISQNKNAEAMRIIKHIAKKNGKSLPASLQRLRLEEETGKKLNPSFLDLVRTPQIRKHTMILMYNWFTSSVLYQGLIMHMGLAGDNIYLDFFYSALVEFPAAFMIILTIDRIGRRYPWAASNMVAGAACLASVFIPGDLQWLKIIISCLGRMGITMAYEIVCLVNAELYPTFIRNLGVHICSSMCDIGGIITPFLVYRLTNIWLELPLMVFGVLGLVAGGLVLLLPETKGKALPETIEEAENMQRPRKNKEKMIYLQVQKLDIPLN
Km [5]: 102 µM
